This is an account of results in patent US10195201B2, “Heteroaryl-pyrimidinone compounds as PDE2 inhibitors” (Merck Sharp & Dohme Corp., priority 2015, dated 2019).

For orientation: Ki means a dissociation constant, usually derived from enzyme kinetics or from competition with a known ligand.

Assay [1] addresses Rhesus PDE2A3 (Macaca mulatta, UniProt B3VTJ2). Nature of the assay: PDE2 fluorescence polarization (IMAP FP) inhibition assay, rhesus enzyme. Type of assay: biochemical, rhesus macaque. Here is the method:
(§1) The activity of the compounds in accordance with the present invention as PDE2 inhibitors may be readily determined using a fluorescence polarization (FP) methodology (Huang, W., et al., J. Biomol Screen, 2002, 7: 215).
In a typical experiment the PDE2 inhibitory activity of the compounds of the present invention was determined in accordance with the following experimental method. Rhesus PDE2A3 was amplified from rhesus macaque brain cDNA (Biochain Institute, Hayward, Calif.) using primers based on human PDE2A sequence (accession NM_002599.3) where the forward primer containing a Kozak consensus was 5′-[…]-3′ and the reverse primer was 5′-[…]-3′. Amplification with Easy-A High-Fidelity PCR cloning enzyme (Stratagene, La Jolla, Calif.) was 95° C. for 2 minutes followed by thirty three cycles of 95° C. for 40 seconds, 52° C. for 30 seconds, and 72° C. for 2 minutes 48 seconds. Final extension was 72° C. for 7 minutes. The PCR product was TA cloned into pcDNA3.3-TOPO (Invitrogen, Carlsbad, Calif.) according to standard protocol. A consensus sequence was developed from multiple clones and then deposited into GenBank (EU812167). AD293 cells (Stratagene, La Jolla, Calif.) with 70-80% confluency were transiently transfected with rhesus PDE2A3/pcDNA3.3-TOPO using Lipofectamine 2000 according to manufacturer specifications (Invitrogen, Carlsbad, Calif.). Cells were harvested 48 hours post-transfection and lysed by sonication (setting 3, 10×5 sec pulses) in a buffer containing 20 mM HEPES pH 7.4, 1 mM EDTA and Complete Protease Inhibitor Cocktail Tablets (Roche, Indianapolis, Ind.). Lysate was collected by centrifugation at 75,000×g for 20 minutes at 4° C. and supernatant utilized for evaluation of PDE2 activity. The fluorescence polarization assay for cyclic nucleotide phosphodiesterases was performed using an IMAP® FP kit supplied by Molecular Devices, Sunnyvale, Calif. (product # R8139). […] Assays were performed at room temperature in 384-well microtiter plates with an incubation volume of 20.2 μL. Solutions of test compounds were prepared in DMSO and serially diluted with DMSO to yield 8 μL of each of 10 solutions differing by 3-fold in concentration, at 32 serial dilutions per plate. […] 0% of inhibition is determined by using DMSO (1% final concentrations).
A Labcyte Echo 555 (Labcyte, Sunnyvale, Calif.) is used to dispense 200 nL from each well of the titration plate to the 384 well assay plate. Ten microliters of a solution of enzyme (1/2000 final dilution from aliquots; sufficient to produce 20% substrate conversion) was added to the assay plate. Next 10 uL of a separate solution of the substrate FAM-labeled cAMP (50 nM final concentration product # R7506 from Molecular Devices) and the activator cGMP (1 uM final concentration), prepared in the assay buffer (10 mM Tris HCl, pH 7.2, 10 mM MgCl2, 0.05% NaN3 0.01% Tween-20, and 1 mM DTT) was added to the assay plate and shaken to mix. The reaction is allowed to proceed at room temperature for 60 minutes. A binding solution is then made from the kit components, comprised of 80% Solution A, 20% Solution B and binding reagent at a volume of 1/600 the total binding solution. The enzymatic reaction is stopped by addition of 60 μL of the binding solution to each well of the assay plates and the plates are sealed and shaken for 30 seconds. The plate was incubated at room temperature for at least one hour prior to determining the fluorescence polarization (FP). The parallel and perpendicular fluorescence of each well of the plate was measured using a Tecan Genios Pro plate reader (Tecan, Switzerland) or Perkin Elmer EnVision™ plate reader (Waltham, Mass.). Fluorescence polarization (mP) was calculated from the parallel (S) and perpendicular (P) fluorescence of each sample well and the analogous values for the median control well, containing only substrate (So and Po), using the following equation: Polarization (mP)=1000*(S/So−P/Po)/(S/So+P/Po).

For assay [2], the target named is human PDE2A1 (Homo sapiens (Human), UniProt O00408). Nature of the assay: PDE2 fluorescence polarization (IMAP FP) inhibition assay, human enzyme. The assay is classed as biochemical. To be noted: LabB; read-out: hPDE2 Ki (nM) LabB. Here is the method: as §1
human PDE2A1, sequence (O00408 other isoform, or with tags, fused parts or gaps): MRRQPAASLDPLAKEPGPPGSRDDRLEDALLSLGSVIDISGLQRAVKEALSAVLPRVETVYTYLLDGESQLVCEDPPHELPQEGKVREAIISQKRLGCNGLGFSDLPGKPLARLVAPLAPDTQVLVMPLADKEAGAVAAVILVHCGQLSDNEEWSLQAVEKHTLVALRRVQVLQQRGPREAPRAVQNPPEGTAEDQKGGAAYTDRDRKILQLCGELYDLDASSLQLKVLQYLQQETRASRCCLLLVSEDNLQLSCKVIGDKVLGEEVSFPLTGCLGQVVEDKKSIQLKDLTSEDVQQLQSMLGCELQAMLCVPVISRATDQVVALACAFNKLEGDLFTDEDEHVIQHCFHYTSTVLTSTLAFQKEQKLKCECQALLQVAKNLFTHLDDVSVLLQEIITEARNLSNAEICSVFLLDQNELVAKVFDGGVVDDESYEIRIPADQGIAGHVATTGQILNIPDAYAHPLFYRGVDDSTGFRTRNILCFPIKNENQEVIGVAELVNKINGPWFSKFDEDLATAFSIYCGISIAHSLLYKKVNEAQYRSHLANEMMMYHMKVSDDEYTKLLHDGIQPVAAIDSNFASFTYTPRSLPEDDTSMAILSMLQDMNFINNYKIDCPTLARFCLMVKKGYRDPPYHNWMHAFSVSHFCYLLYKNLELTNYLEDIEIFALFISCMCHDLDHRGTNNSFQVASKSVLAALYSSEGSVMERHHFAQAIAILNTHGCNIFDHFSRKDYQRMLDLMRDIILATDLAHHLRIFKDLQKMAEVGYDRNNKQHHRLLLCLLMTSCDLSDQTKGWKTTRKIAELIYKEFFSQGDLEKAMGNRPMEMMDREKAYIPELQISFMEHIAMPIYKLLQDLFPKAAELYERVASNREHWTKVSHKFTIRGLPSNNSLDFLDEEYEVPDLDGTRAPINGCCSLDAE
Selectivity for PDE2, as compared to other PDE families, was assessed using the IMAPR technology. Human PDE10A2 enzyme was prepared from cytosolic fractions of transiently transfected HEK cells. All other PDE's were GST Tag human enzyme expressed in insect cells and were obtained from BPS Bioscience (San Diego, Calif.): PDE1A (Cat#60010), human PDE2A1(Cat#60020), PDE3A (Cat#60030), PDE4A1A (Cat#60040), PDE5A1 (Cat#60050), PDE6C (Cat#60060), PDE7A (Cat#60070), PDE8A1 (Cat#60080), PDE9A2 (Cat#60090), PDE11A4 (Cat#60110).
Assays for PDE 1 through 11 were performed in parallel at room temperature in 384-well microtiter plates with an incubation volume of 20.2 μL. Solutions of test compounds were prepared in DMSO and serially diluted with DMSO to yield 30 μL of each of ten solutions differing by 3-fold in concentration, at 32 serial dilutions per plate. […] A Labcyte POD 810 (Labcyte, Sunnyvale, Calif.) was used to dispense 200 nL from each well of the titration plate to make eleven copies of the assay plate for each titration, one copy for each PDE enzyme. A solution of each enzyme (dilution from aliquots, sufficient to produce 20% substrate conversion) and a separate solution of FAM-labeled cAMP or FAM-labeled cGMP from Molecular Devices (Sunnyvale, Calif., product # R7506 or cGMP#R7508), at a final concentration of 50 nM were made in the assay buffer (10 mM Tris HCl, pH 7.2, 10 mM MgCl2, 0.05% NaN3 0.01% Tween-20, and 1 mM DTT). Note that the substrate for PDE2 is 50 nM FAM cAMP containing 1000 nM of cGMP. The enzyme and the substrate were then added to the assay plates in two consecutive additions of 10 μL and then shaken to mix. The reaction was allowed to proceed at room temperature for 60 minutes. A binding solution was then made from the kit components, comprised of 80% Solution A, 20% Solution B and binding reagent at a volume of 1/600 the total binding solution. The enzymatic reaction was stopped by addition of 60 μL of the binding solution to each well of the assay plate. The plates were sealed and shaken for 10 seconds. The plates were incubated at room temperature for one hour, then the parallel and perpendicular fluorescence was measured using a Tecan Genios Pro plate reader (Tecan, Switzerland). The apparent inhibition constants for the compounds against all 11 PDE's was determined from the parallel and perpendicular fluorescent readings as described for PDE10 FP assay using the following apparent KM values for each enzyme and substrate combination: PDE1A (FAM cGMP) 70 nM, human PDE2A1 (FAM cAMP) 10,000 nM, PDE3A (FAM cAMP) 50 nM, PDE4A1A (FAM cAMP) 1500 nM, PDE5A1 (FAM cGMP) 400 nM, PDE6C (FAM cGMP) 700 nM, PDE7A (FAM cAMP) 150 nM, PDE8A1 (FAM cAMP) 50 nM, PDE9A2 (FAM cGMP) 60 nM, […] (FAM cAMP) 150 nM, PDE11A4 (FAM cAMP) 1000 nM. The intrinsic PDE2 inhibitory activity of a compound which may be used in accordance with the present invention may be determined by these assays. […]

Where [3] appears, read: LabA, read-out: rhPDE2 Ki (nM) LabA.
[4] abbreviates: LabB, read-out: rhPDE2 Ki (nM) LabB.

Like-named read-outs stand apart in the source and are kept apart here. Where only a bound is given, the exact number is not on record here.

Rhesus PDE2A3, sequence (B3VTJ2 1-941): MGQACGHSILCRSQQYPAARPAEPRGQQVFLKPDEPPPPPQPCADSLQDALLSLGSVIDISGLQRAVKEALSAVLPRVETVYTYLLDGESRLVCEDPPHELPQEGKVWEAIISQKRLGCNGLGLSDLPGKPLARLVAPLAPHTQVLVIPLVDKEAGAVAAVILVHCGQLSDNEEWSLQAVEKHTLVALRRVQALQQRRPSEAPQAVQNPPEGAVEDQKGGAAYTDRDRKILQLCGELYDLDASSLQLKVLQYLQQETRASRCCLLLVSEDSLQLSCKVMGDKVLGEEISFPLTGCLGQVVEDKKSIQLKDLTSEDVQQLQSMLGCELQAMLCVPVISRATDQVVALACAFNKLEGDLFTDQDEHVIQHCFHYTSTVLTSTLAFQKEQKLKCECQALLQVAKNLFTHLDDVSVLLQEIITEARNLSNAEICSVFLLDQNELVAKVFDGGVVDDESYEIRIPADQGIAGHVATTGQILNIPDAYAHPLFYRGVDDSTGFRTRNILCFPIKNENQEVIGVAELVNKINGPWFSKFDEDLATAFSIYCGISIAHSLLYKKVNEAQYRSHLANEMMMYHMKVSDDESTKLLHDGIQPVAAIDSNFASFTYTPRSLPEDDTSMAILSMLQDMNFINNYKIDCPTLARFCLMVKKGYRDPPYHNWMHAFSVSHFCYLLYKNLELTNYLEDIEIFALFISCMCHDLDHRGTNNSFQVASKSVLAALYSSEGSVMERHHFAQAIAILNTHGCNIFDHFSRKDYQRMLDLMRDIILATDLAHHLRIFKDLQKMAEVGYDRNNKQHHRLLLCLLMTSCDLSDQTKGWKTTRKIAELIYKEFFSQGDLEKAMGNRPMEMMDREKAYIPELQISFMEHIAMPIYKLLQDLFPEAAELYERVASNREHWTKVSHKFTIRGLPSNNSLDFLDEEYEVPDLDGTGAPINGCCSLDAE

Take `Cc1nc(-c2nnc([C@H](C)c3ccc(C(F)(F)F)cc3)o2)cc(=O)[nH]1` (single isomer, unassigned) [Example 10]: the values for the Ki in assay [1] (setting [3]) and in assay [1] (setting [4]) were 470 nM and 699 nM, respectively. In the case of `Cc1nc(-c2cn([C@H](C)c3ccc(C(F)(F)F)cc3F)cn2)cc(=O)[nH]1` (single isomer, unassigned) [Example 14], in assay [1] (setting [3]), the Ki was 298 nM. Same read-out and setting: the result for `Cc1nc(-c2cn(C(C)c3ccc(C(F)(F)F)cc3)cn2)cc(=O)[nH]1` (single isomer, unassigned) [Example 16, (R)- or (S)-2-methyl-6-(1-(1-(4-(trifluoro-methyl)phenyl)ethyl)-1H-imidazol-4-yl) pyrimidin-4 (3H)-one] reads 340 nM; that for `Cc1nc(-c2cncc([C@@H](C)c3ccc(C(F)(F)F)cc3)c2)cc(=O)[nH]1` (single isomer, unassigned) [Example 23], greater than 1000 nM. The same measure, in the same setting: the result for `Cc1nc(-c2cncc([C@@H](C)c3ccc(C(F)(F)F)cc3)c2)cc(=O)[nH]1` (single isomer, unassigned) [Example 24] reads 826 nM.

For the molecule `Cc1nc(-c2cc([C@@H](C)c3ccc(C(F)(F)F)cc3F)ncn2)cc(=O)[nH]1` (single isomer, unassigned) [Example 30], the Ki in assay [2] came out at 39 nM.

Consider `Cc1nc(-c2cc([C@@H](C)c3ccc(C(F)(F)F)cc3F)ncn2)cc(=O)[nH]1` (single isomer, unassigned) [Example 31], for which the Ki in assay [2] was determined as 16 nM. On to `Cc1nc(-c2nc(C(C)c3ccc(C(F)(F)F)cc3)cs2)cc(=O)[nH]1` (stereo not shown) [Example 3, 2-Methyl-6-(4-(1-(4-(trifluoromethyl)phenyl)ethyl)thiazol-2-yl)pyrimidin-4(3H)-one], for which the Ki in assay [1] (setting [3]) was found to be 532 nM. With `Cc1nc(-c2noc(C(C)c3ccc(C(F)(F)F)cc3)n2)cc(=O)[nH]1` (stereo not shown) [Example 11, 2-Methyl-6-(5-(1-(4-(trifluoromethyl)phenyl)ethyl)-1,2,4-oxadiazol-3-yl)pyrimidin-4(3H)-one], the values for the Ki in assay [1] (setting [3]) and in assay [1] (setting [4]) were 1080 nM and 1750 nM, respectively. Turning to `Cc1nc(-c2nc(C(C)c3ccc(C(F)(F)F)cc3)no2)cc(=O)[nH]1` (stereo not shown) [Example 12, 2-Methyl-6-(3-(1-(4-(trifluoromethyl)phenyl)ethyl)-1,2,4-oxadiazol-5-yl)pyrimidin-4(3H)-one], the Ki in assay [1] (setting [3]) turned out to be 1870 nM; in assay [1] (setting [4]) it was 2410 nM. In the same order, the values of `Cc1nc(-c2ncc(C(C)c3ccc(C(F)(F)F)cc3)[nH]2)cc(=O)[nH]1` (stereo not shown) [Example 13, 2-Methyl-6-(5-(1-(4-(trifluoromethyl)phenyl)ethyl)-1H-imidazol-2-yl)pyrimidin-4(3H)-one] are 868 nM and 631 nM. On to `CCC(c1ccc(C(F)(F)F)cc1F)n1cnc(-c2cc(=O)[nH]c(C)n2)c1` (stereo not shown) [Example 20, 6-(1-(1-(2-Fluoro-4-(trifluoromethyl)phenyl)propyl)-1H-imidazol-4-yl)-2-methylpyrimidin-4(3H)-one], for which the Ki in assay [1] (setting [4]) was determined as 123 nM. The same measure, in the same setting: as for `Cc1nc(-c2cn(C(c3ccc(C(F)(F)F)cc3F)C(C)C)cn2)cc(=O)[nH]1` (stereo not shown) [Example 21, 6-(1-(1-(2-Fluoro-4-(trifluoromethyl)phenyl)-2-methylpropyl)-1H-imidazol-4-yl)-2-methylpyrimidin-4(3H)-one], the figure is 110 nM. With `Cc1nc(-c2cc(C(C)c3ccc(C(F)(F)F)cc3)ccn2)cc(=O)[nH]1` (stereo not shown) [Example 22, 2-methyl-6-(4-(1-(4-(trifluoromethyl)phenyl)ethyl)pyridin-2-yl)pyrimidin-4(3H)-one], the Ki in assay [1] (setting [3]) was 920 nM; in assay [1] (setting [4]) it was 868 nM. Take `Cc1nc(-c2cncc(C(O)c3ccc(C(F)(F)F)cc3)c2)cc(=O)[nH]1` (stereo not shown) [Example 25, 6-(5-(Hydroxy(4-(trifluoromethyl)phenyl)methyl)pyridin-3-yl)-2-methylpyrimidin-4(3H)-one]: the Ki in assay [1] (setting [3]) turned out to be 12900 nM. Still for that read-out and setting: as for `Cc1nc(-c2cncc(C(C)(O)c3ccc(C(F)(F)F)cc3)c2)cc(=O)[nH]1` (stereo not shown) [Example 26, 6-(5-(1-Hydroxy-1-(4-(trifluoromethyl)phenyl)ethyl)pyridin-3-yl)-2-methylpyrimidin-4(3H)-one], the figure is 1810 nM. The same measure, in the same setting: as for `Cc1nc(-c2ccnc(C(C)c3ccc(C(F)(F)F)cc3)c2)cc(=O)[nH]1` (stereo not shown) [Example 27, 2-Methyl-6-(2-(1-(4-(trifluoromethyl)phenyl)ethyl)pyridin-4-yl)pyrimidin-4(3H)-one], the figure is 1270 nM. On the same count and under the same terms, as for `Cc1nc(-c2ccnc(C(C)(O)c3ccc(C(F)(F)F)cc3)c2)cc(=O)[nH]1` (stereo not shown) [Example 28, 6-(2-(1-hydroxy-1-(4-(trifluoromethyl)phenyl)ethyl)pyridin-4-yl)-2-methylpyrimidin-4(3H)-one], the figure is 2880 nM.

On to `Cc1nc(-c2cncc(C(C)c3ccc(C(F)(F)F)cc3)n2)cc(=O)[nH]1` (stereo not shown) [Example 29, 2-Methyl-6-(6-(1-(4-(trifluoromethyl)phenyl)ethyl)pyrazin-2-yl)pyrimidin-4(3H)-one], for which the Ki in assay [1] (setting [3]) stood at 1710 nM; in assay [1] (setting [4]) it was 1660 nM.
